Laboratory results as given in PMC2861356 (Clinical cancer research : an official journal of the …, 2009).
Read-outs that look alike come from different tables or passages of the source.

How the values were obtained:
[1] = test system: surgically incurable GIST; conditions: cited from earlier work
clinical [2] = conditions: human, plasma, oral; for Cmax: Imatinib Cmax, mean ± SD; for Tmax: Imatinib tmax, median (range)
[3] = test system: imatinib-resistant gastrointestinal stromal tumors (GIST); experiment: Tumor response; type: in vivo, human
[4] = test system: patients with advanced imatinib-resistant gastrointestinal stromal tumors (GIST)
clinical [5] = conditions: human, serum, oral
[6] = Nilotinib serum pharmacokinetics at steady-state
GIST = GIST after imatinib; cited from earlier work
[7] = Cohort 2 (n=6), imatinib 400 mg bid with nilotinib 200 mg qd, Day 8
[8] = 400 mg, Cohort 3 (n=7), imatinib 400 mg bid alone, Day -1
[9] = 400 mg, Cohort 3 (n=7), imatinib 400 mg bid with nilotinib 400 mg qd, Day 8

**Q.** With Cc1ccc(NC(=O)c2ccc(CN3CCN(C)CC3)cc2)cc1Nc1nccc(-c2cccnc2)n1 [Imatinib] as the compound, how does the “Imatinib Cavg, mean ± SD” value (Cohort 2 (n=6), imatinib 400 mg bid alone, Day -1) read?
**A.** The value was 2381 ± 1181 ng/mL.

**Q.** And the “Imatinib Cavg, mean ± SD” value [7]?
**A.** The value was 2768 ± 1039 ng/mL.

**Q.** What about the “Imatinib Cavg, mean ± SD” value (Cohort 3 (n=7), imatinib 400 mg bid alone, Day -1) of the same compound?
**A.** Its value is 3594 ± 2195 ng/mL.

**Q.** What about the “Imatinib Cavg, mean ± SD” value (Cohort 3 (n=7), imatinib 400 mg bid with nilotinib 400 mg qd, Day 8) of the same compound?
**A.** Its value is 3735 ± 1212 ng/mL.

**Q.** And the “Imatinib Cavg, mean ± SD” value (Cohort 4 (n=5), imatinib 400 mg bid alone, Day -1)?
**A.** The value was 3556 ± 1523 ng/mL.

**Q.** What about the “Imatinib Cavg, mean ± SD” value (Cohort 4 (n=5), imatinib 400 mg bid with nilotinib 400 mg bid, Day 8) of the same compound?
**A.** Its value is 4285 ± 2325 ng/mL.

**Q.** And the “Patients with primary resistance within the first 6 months of therapy” value ([1]; estimated)?
**A.** The value was 5-14%.

**Q.** And the “Median time of therapy until secondary resistance” value ([1]; most patients)?
**A.** Its value is 2 years.

**Q.** And the Median survival ([1]; surgically incurable GIST)?
**A.** The Median survival was ~5 years.

**Q.** And the Tumor control rates ([1]; surgically incurable GIST)?
**A.** The Tumor control rates was > 80%.

**Q.** What about the Cmax (clinical [2]; 400 mg, Cohort 2 (n=6), imatinib 400 mg bid alone, Day -1) of the same compound?
**A.** The Cmax was 2770 ± 1140 ng/mL.

**Q.** And the Cmax (clinical [2]; [8])?
**A.** The Cmax was 4020 ± 2170 ng/mL.

**Q.** What about the Cmax (clinical [2]; [9]) of the same compound?
**A.** The Cmax was 4200 ± 1120 ng/mL.

**Q.** And the Cmax (clinical [2]; 400 mg, Cohort 4 (n=5), imatinib 400 mg bid alone, Day -1)?
**A.** The Cmax was 4170 ± 1760 ng/mL.

**Q.** And the Cmax (clinical [2]; 400 mg, Cohort 4 (n=5), imatinib 400 mg bid with nilotinib 400 mg bid, Day 8)?
**A.** The Cmax was 5070 ± 2760 ng/mL.

**Q.** And the Tmax (clinical [2]; [8])?
**A.** The Tmax was 4.8 h.

**Q.** And the Tmax (clinical [2]; [9])?
**A.** The Tmax was 2.4 h.

**Q.** And the Cmax (clinical [2]; [7])?
**A.** The Cmax was 3370 ± 1120 ng/mL.

**Q.** What about the Tmax (clinical [2]; [7]) of the same compound?
**A.** The Tmax was 2.9 h.

**Q.** For Cc1cn(-c2cc(NC(=O)c3ccc(C)c(Nc4nccc(-c5cccnc5)n4)c3)cc(C(F)(F)F)c2)cn1 [Nilotinib], which “Best overall response: Complete response” value ([3]; Nilotinib 400 mg bid n=18) is on record?
**A.** Its value is 0 n (%).

**Q.** And the “Best overall response: Partial response” value ([3]; Nilotinib 400 mg bid n=18)?
**A.** Its value is 1 (6) n (%).

**Q.** And the “Best overall response: Progressive disease” value ([3]; Nilotinib 400 mg bid n=18)?
**A.** Its value is 2 (11) n (%).

**Q.** And the “Best overall response: Stable disease” value ([3]; Nilotinib 400 mg bid n=18)?
**A.** The value was 13 (72) n (%).

**Q.** And the “Best overall response: Unknown (could not be classified)” value ([3]; Nilotinib 400 mg bid n=18)?
**A.** Its value is 1 (6) n (%).

**Q.** And the “Progression-free survival, Kaplan-Meier rate at 4 months” value ([3]; Nilotinib 400 mg bid n=18)?
**A.** The value was 59%.

**Q.** And the “Progression-free survival, Kaplan-Meier rate at 6 months” value ([3]; Nilotinib 400 mg bid n=18)?
**A.** The value was 47%.

**Q.** And the “Progression-free survival, median” value ([3]; Nilotinib 400 mg bid n=18)?
**A.** The value was 168 days.

**Q.** And the “Progression-free survival, range” value ([3]; Nilotinib 400 mg bid n=18)?
**A.** Its value is 1 to 393 days.

**Q.** What about the “Patients with stable disease” value ([3]; all cohorts) of the same compound?
**A.** Its value is “Thirty-eight”.

**Q.** What about the “Discontinuation of study for disease progression” value ([3]; all cohorts, n=32) of the same compound?
**A.** The value was 60%.

**Q.** And the “Progression-free survival, range” value ([3]; all patients)?
**A.** The value was 1 to 393 days.

**Q.** And the Median progression-free survival ([3]; entire group, all patients)?
**A.** Its Median progression-free survival is 134 days.

**Q.** And the “Stable disease lasting >6 months” value ([3]; single-agent nilotinib group, 5 patients)?
**A.** The value was 28%.

**Q.** What about the “Stable disease lasting >4 months” value ([3]; single-agent nilotinib group, 9 patients) of the same compound?
**A.** Its value is 50%.

**Q.** What about the “Discontinuation of study for death” value ([4]; all cohorts, n=2) of the same compound?
**A.** Its value is 4%.

**Q.** And the “Abdominal pain, overall frequency of AE” value ([4]; human, in vivo)?
**A.** The value was 36%.

**Q.** What about the “Discontinuation of study for AEs” value ([4]; human, in vivo) of the same compound?
**A.** Its value is 6%.

**Q.** What about the “Fatigue, overall frequency of AE” value ([4]; human, in vivo) of the same compound?
**A.** The value was 38%.

**Q.** What about the “Grade 3 elevations of AST or ALT” value ([4]; human, in vivo) of the same compound?
**A.** Its value is < 2%.

**Q.** And the “Grade 3 or 4 laboratory abnormality: hyperbilirubinemia” value ([4]; human, in vivo)?
**A.** Its value is 8%.

**Q.** And the “Grade 3 or 4 toxicities, patients overall” value ([4]; human, in vivo)?
**A.** Its value is 49%.

**Q.** What about the “Nausea, overall frequency of AE” value ([4]; human, in vivo) of the same compound?
**A.** Its value is 36%.

**Q.** And the “Post-baseline QTcF interval >480 msec” value ([4]; human, in vivo)?
**A.** Its value is 13%.

**Q.** And the “QTcF >500 msec” value ([4]; human, in vivo)?
**A.** Its value is “no QTcF >500 msec was reported”.

**Q.** What about the “Rash, overall frequency of AE” value ([4]; human, in vivo) of the same compound?
**A.** Its value is 40%.

**Q.** What about the “Severe AEs (grade 3 or 4): abdominal pain” value ([4]; human, in vivo) of the same compound?
**A.** The value was 13%.

**Q.** What about the “Dose deemed appropriate for Phase II studies” value ([4]; human, in vivo, 28 days) of the same compound?
**A.** Its value is 400 mg bid.

**Q.** And the “Dose-limiting toxicity: grade 3 hyperbilirubinemia, frequency” value ([4]; human, in vivo, 28 days)?
**A.** The value was 6%.

**Q.** And the Thrombocytopenia episodes ([4]; in vivo)?
**A.** Its Thrombocytopenia episodes is “no episodes of thrombocytopenia”.

**Q.** And the AUC(0-t) (clinical [5])?
**A.** Its AUC(0-t) is 13600 ± 6620 ng·h/mL.

**Q.** And the Cmax (clinical [5]; 400 mg bid)?
**A.** The Cmax was 1640 ± 828 ng/mL.

**Q.** What about the Tmax (clinical [5]; 400 mg bid) of the same compound?
**A.** The Tmax was 2.8 h.

**Q.** And the “Slope of Cavg versus total nilotinib daily dose (power model)” value ([6]; combination cohorts)?
**A.** Its value is 0.946.

**Q.** And the “Slope of Cmax versus total nilotinib daily dose (power model)” value ([6]; combination cohorts)?
**A.** The value was 0.881.

**Q.** And the “Nilotinib AUC0-t higher than in single-agent cohort” value ([6]; nilotinib 400 mg bid combination cohorts, second value)?
**A.** Its value is 18%.

**Q.** And the “Nilotinib oral clearance, mean CL/F across the combination groups” value ([6]; nilotinib with imatinib, 4 combination cohorts)?
**A.** The value was 19.1 to 25.6 L/h.

**Q.** For CCN(CC)CCNC(=O)c1c(C)[nH]c(/C=C2\C(=O)Nc3ccc(F)cc32)c1C [Sunitinib], which “Duration of benefit of second-line therapy” value (GIST) is on record?
**A.** Its value is “approximately 9 months”.
